Source: paper PMC3227566, “Targeting Acetylcholinesterase: Identification of Chemical Leads by High Throughput Screening, Structure Determination and Molecular Modeling” (PLoS ONE, 2011)
Like-named read-outs stand apart in the source and are kept apart here.

Target: T1, recombinant hAChE (Homo sapiens, UniProt P22303)
T1 construct: made in house
Assay: biochemical
Description: A chemical library consisting of 17 500 substances was screened using the colorimetric Ellman assay and recombinant hAChE. The hydrolysis of acetylthiocholine iodide was monitored and the average slope of the positive controls was set to 100% activity. […] Molecules in Set 1 were selected to represent the chemical space according to a Principal Component Analysis (PCA) of the hits' structural and physicochemical features (see section Chemical space of AChE inhibitors, below).
The screening was performed at the Umeå Small Molecule Screening Facility currently incorporated in the screening platform of the Laboratories for Chemical Biology, Umeå (LCBU). Recombinant hAChE was expressed and purified according to previously described methods, [46]. The enzymatic activity was measured using the Ellman assay adapted to a 96-well format. The final assay volume was 200 µL and all measurements were performed in 0.2 mM 5,5′-Dithiobis(2-nitrobenzoic acid) and 1 mM acethylthiocholine iodide in 0.1 M phosphate buffer pH 8.0. […] Stock solutions were prepared in DMSO and transferred to the assay plate using a Biomek NC robotic system (BeckanCoulter). The enzymatic reaction was monitored for 120 seconds using an Infinite M200 plate-reader (Tekan) at a ligand concentration of 50 µM and temperature of 20°C. Each plate contained 80 samples, 14 positive controls and two negative controls. […] Substances reducing the activity by at least 70% were scored as hits. […] For each inhibitor, the enzymatic activity was determined at eight concentrations selected to produce a dose-response curve that was subsequently analyzed using Prism.

[1] = hits with determined crystal structures, mean ± standard deviation of 2–5 determinations, read-out: IC50

T1 sequence (P22303 32-614): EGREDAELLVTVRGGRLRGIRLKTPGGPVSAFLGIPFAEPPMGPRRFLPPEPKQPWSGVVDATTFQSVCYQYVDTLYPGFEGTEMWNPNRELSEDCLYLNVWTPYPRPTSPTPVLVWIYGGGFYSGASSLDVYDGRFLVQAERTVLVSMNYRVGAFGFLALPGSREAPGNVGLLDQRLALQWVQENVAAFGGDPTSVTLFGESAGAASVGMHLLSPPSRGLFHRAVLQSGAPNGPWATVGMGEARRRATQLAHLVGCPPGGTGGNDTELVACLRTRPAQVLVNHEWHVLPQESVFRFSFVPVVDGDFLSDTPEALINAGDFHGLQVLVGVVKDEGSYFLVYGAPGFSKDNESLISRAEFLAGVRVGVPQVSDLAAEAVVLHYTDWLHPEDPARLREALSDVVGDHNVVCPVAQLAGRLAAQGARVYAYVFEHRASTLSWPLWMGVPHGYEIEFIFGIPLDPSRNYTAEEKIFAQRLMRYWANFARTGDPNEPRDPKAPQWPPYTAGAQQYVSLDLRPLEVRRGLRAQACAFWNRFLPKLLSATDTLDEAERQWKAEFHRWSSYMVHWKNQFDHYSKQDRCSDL

Structure (SMILES)	IC50 [1] [nM]	IC50 [nM]
COC(=O)CSc1nc(C)c(C)c(C)c1C#N [Compound C5231]	36000 ± 6300	
CCN1CCCC1CNC(=O)c1cc([N+](=O)[O-])c(N(C)C)cc1OC (centres unmarked) [Compound C5685]		1300 ± 100
CCN(CC)CCCNc1c([N+](=O)[O-])c(=O)n(C)c2ccccc12 [Compound C6905]	2000 ± 100	
CCN(CC)CCCNc1oc(-c2ccc(Cl)cc2)nc1C#N [Compound C7491]	21400 ± 1700	
COc1ccc(C(=O)NC(=S)Nc2ccc(N3CCN(C)CC3)cc2)cc1[N+](=O)[O-] [Compound C7643]	540 ± 30	
